Assay results from patent US20240041042A1, “1-(PYRIDYL)-5-AZINYLPYRAZOLE DERIVATIVES, AND THEIR USE FOR CONTROL OF UNDESIRED PLANT GROWTH” (Bayer Aktiengesellschaft, priority 2020, published 2024).
Like-named read-outs stand apart in the source and are kept apart here.

Tests used:
Type in all cases: in vivo
Avena fatua (AVEFA) [1] = assay: Pre-emergence herbicidal action against AVEFA; settings: visual scoring after about 3 weeks vs untreated controls
In short: (§1)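 Pre-emergence soil-surface spray, WP/EC formulation, 0.5% additive, 600 l/ha water, rates of 320 g/ha or lower. Greenhouse, ~3 wk. Visual score, % of untreated control (100% = plants dead, 0% = like control).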

Zea mays (ZEAMX) [2] = settings: pre-emergence, 80 g/ha, crop plant compatibility, in comparison to untreated controls
In short: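 Crop injury rated visually in percent against untreated plants roughly 3 weeks after treatment (0% no effect, 100% plants dead). Compounds, as WP or EC with 0.5% additive in 600 l/ha water, were applied to the covering soil right after sowing; greenhouse growth. Suffixes a, b, c denote different dosages.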

[3] = system: Polygonum convolvulus (POLCO); assay: Pre-emergence herbicidal action against POLCO
In short: as §1

[4] = system: Digitaria sanguinalis (DIGSA); assay: Post-emergence herbicidal action against DIGSA; settings: visual rating about 3 weeks after treatment
In short: (§2)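 Post-emergence greenhouse spray, one-leaf stage, 600 l/ha water plus 0.5% additive; WP or EC formulations; application rates 320 g/ha or lower. Visual % damage vs untreated controls at ~3 weeks.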

[5] = system: Matricaria inodora (MATIN); assay: Pre-emergence herbicidal action against MATIN; settings: dosage 320 g/ha
In short: as §1

Viola tricolor (VIOTR) [6] = assay: Post-emergence herbicidal action against VIOTR
In short: as §2

[7] = system: Alopecurus myosuroides (ALOMY); assay: Post-emergence herbicidal action against ALOMY; settings: visual rating about 3 weeks after treatment vs untreated controls (100% = plants have died, 0% = like control plants)
In short: as §2

[8] = system: Amaranthus retroflexus (AMARE); assay: Pre-emergence herbicidal action against AMARE; settings: visual scoring after about 3 weeks vs untreated controls
In short: as §1

Viola tricolor (VIOTR) [9] = assay: Pre-emergence herbicidal action against VIOTR
In short: as §1

[10] = system: Alopecurus myosuroides (ALOMY); assay: Pre-emergence herbicidal action against ALOMY; settings: scored visually after about 3 weeks, 100% = plants have died
In short: as §1

[11] = system: Pharbitis purpurea (PHBPU); assay: Pre-emergence herbicidal action against PHBPU; settings: dosage 320 g/ha
In short: as §1

[12] = system: Matricaria inodora (MATIN); assay: Post-emergence herbicidal action against MATIN
In short: as §2

[13] = system: Echinochloa crus-galli (ECHCG); assay: Pre-emergence herbicidal action against ECHCG; settings: dosage 320 g/ha
In short: as §1

[14] = system: Echinochloa crus-galli (ECHCG); assay: Post-emergence herbicidal action against ECHCG
In short: as §2

Lolium rigidum (LOLRI) [15] = assay: Pre-emergence herbicidal action against LOLRI
In short: as §1

Setaria viridis (SETVI) [16] = assay: Pre-emergence herbicidal action against SETVI
In short: as §1

[17] = system: Digitaria sanguinalis (DIGSA); assay: Pre-emergence herbicidal action against DIGSA
In short: as §1

Zea mays (ZEAMX) [18] = settings: for Post-emergence action against ZEAMX in % (crop plant compatibility): 20 g/ha, effect in comparison to untreated controls
In short: (§3)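 Greenhouse crops in sandy loam sprayed post-emergence at the one-leaf stage, 2–3 weeks after sowing, with WP or EC formulations in water plus 0.5% additive at 600 l/ha. Damage rated visually about 3 weeks later versus untreated controls (0% = like control, 100% = dead); suffixes a–c denote different doses.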

[19] = system: Verconica persica (VERPE); assay: Pre-emergence herbicidal action against VERPE; settings: dosage 320 g/ha
In short: as §1

Avena fatua (AVEFA) [20] = assay: Post-emergence herbicidal action against AVEFA; settings: visual rating about 3 weeks after treatment
In short: as §2

Setaria viridis (SETVI) [21] = assay: Post-emergence herbicidal action against SETVI
In short: as §2

[22] = system: Pharbitis purpurea (PHBPU); assay: Post-emergence herbicidal action against PHBPU
In short: as §2

[23] = system: Polygonum convolvulus (POLCO); assay: Post-emergence herbicidal action against POLCO
In short: as §2

[24] = system: Abutilon theophrasti (ABUTH); assay: Post-emergence herbicidal action against ABUTH; settings: 80 g/ha, visual rating about 3 weeks after treatment vs untreated controls (100% = plants have died, 0% = like control plants)
In short: as §2

Lolium rigidum (LOLRI) [25] = assay: Post-emergence herbicidal action against LOLRI
In short: as §2

Oryza sativa (ORYSA) = settings: crop plant compatibility
In short: as §3

[26] = system: Amaranthus retroflexus (AMARE); assay: Post-emergence herbicidal action against AMARE
In short: as §2

[27] = 80 g/ha, visual scoring after about 3 weeks vs untreated controls
[28] = 80 g/ha, effect in comparison to untreated controls

Pre-emergence action against ZEAMX in % (Zea mays (ZEAMX) [2]) [%]	Structure (SMILES)	Pre-emergence action against AVEFA in % (Avena fatua (AVEFA) [1]; 320 g/ha) [%]	Pre-emergence action against POLCO in % ([3]; dosage 80 g/ha) [%]	Pre-emergence action against POLCO in % ([3]; dosage 320 g/ha) [%]	Post-emergence action against DIGSA in % ([4]; 80 g/ha) [%]	Pre-emergence action against MATIN in % [5] [%]	Post-emergence action against VIOTR in % (Viola tricolor (VIOTR) [6]; 80 g/ha) [%]	Post-emergence action against ALOMY in % ([7]; 80 g/ha) [%]	Pre-emergence action against AMARE in % ([8]; 80 g/ha) [%]	Pre-emergence action against AMARE in % ([8]; 320 g/ha) [%]	Pre-emergence action against VIOTR in % (Viola tricolor (VIOTR) [9]; 320 g/ha, Viola tricolor) [%]	Pre-emergence action against VIOTR in % (Viola tricolor (VIOTR) [9]; dosage 80 g/ha) [%]	Pre-emergence action against ALOMY ([10]; 80 g/ha) [%]	Pre-emergence action against ALOMY ([10]; 320 g/ha) [%]	Pre-emergence action against PHBPU in % [11] [%]	Pre-emergence action against ECHCG in % [13] [%]	Pre-emergence action against LOLRI in % (Lolium rigidum (LOLRI) [15]; dosage 80 g/ha) [%]	Pre-emergence action against LOLRI in % (Lolium rigidum (LOLRI) [15]; dosage 320 g/ha) [%]	Pre-emergence action against DIGSA in % [17, 27] [%]	Pre-emergence action against DIGSA in % ([17]; dosage 320 g/ha) [%]	further results
10	N#CCOC(=O)COc1nn(-c2ncccc2F)c(-c2ccc(F)nc2)c1Br [Example I-30]	100	80	90	90	90	80	90	100	100	100	90	100	100	90	100	90	100	100	100	Post-emergence action against MATIN in % ([12]; dosage 80 g/ha): 90%; Post-emergence action against ECHCG in % ([14]; dosage 80 g/ha): 80%; Pre-emergence action against SETVI in % (Setaria viridis (SETVI) [16]; dosage 80 g/ha): 90%; Pre-emergence action against SETVI in % (Setaria viridis (SETVI) [16]; dosage 320 g/ha): 100%; Post-emergence action against ZEAMX in % (crop plant compatibility) (Zea mays (ZEAMX) [18]): 20%; Post-emergence action against ZEAMX in % (Zea mays (ZEAMX) [18]; crop plant compatibility, 80 g/ha, effect vs untreated controls): 20%; Pre-emergence action against VERPE in % [19]: 90%
0	COC(=O)[C@@H](C)Oc1nn(-c2ccccn2)c(-c2ccnc(F)c2)c1Cl [Example I-19]	100	90	100	80	90	90	100	100	100	100	100	100	100	90	100	–	100	100	100	Pre-emergence action against AVEFA in % (Avena fatua (AVEFA) [1]; 80 g/ha): 80%; Post-emergence action against AVEFA in % (Avena fatua (AVEFA) [20]; 80 g/ha): 90%; Post-emergence action against SETVI in % (Setaria viridis (SETVI) [21]; dosage 80 g/ha): 80%; Post-emergence action against PHBPU in % ([22]; dosage 80 g/ha): 90%; Post-emergence action against POLCO in % ([23]; dosage 80 g/ha): 90%; Post-emergence action against ABUTH in % [24]: 80%; Post-emergence action against LOLRI in % (Lolium rigidum (LOLRI) [25]; dosage 80 g/ha): 80%; Pre-emergence action against SETVI in % (Setaria viridis (SETVI) [16]; dosage 80 g/ha): 100%; Pre-emergence action against SETVI in % (Setaria viridis (SETVI) [16]; dosage 320 g/ha): 100%; Post-emergence action against ZEAMX in % (crop plant compatibility) (Zea mays (ZEAMX) [18]): 0%; Post-emergence action against ORYSA in % (Oryza sativa (ORYSA); 20 g/ha, effect vs untreated controls): 0%; Post-emergence action against ORYSA in % (Oryza sativa (ORYSA); [28]): 0%; Post-emergence action against AMARE in % ([26]; 80 g/ha, visual rating about 3 weeks after treatment vs untreated controls (100% = plants have died, 0% = like control plants)): 80%; Pre-emergence action against VERPE in % [19]: 100%
20	COC(=O)CCOC(=O)C(C)Oc1nn(-c2ccccn2)c(-c2ccc(F)nc2)c1C(F)(F)F (stereo not drawn) [Example I-293]	90	–	80	–	80	80	90	–	100	100	80	90	100	80	90	100	100	80	100	Pre-emergence action against AVEFA in % (Avena fatua (AVEFA) [1]; 80 g/ha): 80%; Post-emergence action against AVEFA in % (Avena fatua (AVEFA) [20]; 80 g/ha): 80%; Post-emergence action against AVEFA in % (Avena fatua (AVEFA) [20]; 320 g/ha): 90%; Post-emergence action against SETVI in % (Setaria viridis (SETVI) [21]; dosage 320 g/ha): 80%; Post-emergence action against DIGSA in % ([4]; 320 g/ha): 80%; Post-emergence action against PHBPU in % ([22]; dosage 320 g/ha): 80%; Post-emergence action against VIOTR in % (Viola tricolor (VIOTR) [6]; 320 g/ha): 80%; Post-emergence action against ALOMY in % ([7]; 320 g/ha): 90%; Post-emergence action against POLCO in % ([23]; dosage 80 g/ha): 80%; Post-emergence action against POLCO in % ([23]; dosage 320 g/ha): 80%; Post-emergence action against MATIN in % ([12]; dosage 320 g/ha): 80%; Post-emergence action against ECHCG in % ([14]; dosage 320 g/ha): 80%; Post-emergence action against LOLRI in % (Lolium rigidum (LOLRI) [25]; dosage 80 g/ha): 80%; Post-emergence action against LOLRI in % (Lolium rigidum (LOLRI) [25]; dosage 320 g/ha): 80%; Post-emergence action against ORYSA in % (Oryza sativa (ORYSA); [28]): 0%; Post-emergence action against AMARE in % ([26]; 320 g/ha, visual rating about 3 weeks after treatment): 80%
